This is an account of results in EP1271240B1, “Silver halide color photographic material” (KONICA CORPORATION, priority 2001, dated 2003).

A short description of this data set: Dissolution temperature of coupler in tricresyl phosphate and ethyl acetate. It counts as physicochemical. The following applies: 1 g coupler, tricresyl phosphate of equal weight and ethyl acetate of three times the weight; temperature at which the coupler was completely dissolved. The source says: Structures of comparative couplers a to e are respectively shown below. [drawing 115] [drawing 116] [drawing 117] [drawing 118] [drawing 119]

Consider `CCC(C)(C)c1ccc(OCCCCNC(=O)c2nn3c(-c4cc(Cl)cc(Cl)c4)n[nH]c3c2Cl)c(C(C)(C)CC)c1` [Coupler b], for which the “Dissolution Temperature” value amounted to 60 °C.
For `CCC(C)(C)c1ccc(OCCCCNC(=O)C(NC(=O)c2nn3c(-c4ccc(Cl)c(Cl)c4)n[nH]c3c2Cl)C(C)C)c(C(C)(C)CC)c1` (centres unmarked) [Coupler d], the “Dissolution Temperature” value came to 60 °C.
